Reference: patent US10227323B2, “Glucosylceramide synthase inhibitors for the treatment of diseases” (BIOMARIN PHARMACEUTICAL INC., priority 2013, dated 2019)

The compounds below were run against T1, GCS (Canis lupus familiaris, UniProt A0A8I3MXG6) (assay: Assay 1: GCS Enzymatic Assay (MDCK cell lysate, C6-NBD-Ceramide, LC/MS)). Conditions: Table 1; MDCK cell lysate; read-out: IC50 (nM) generated from Assay 1.
T1 sequence (A0A8I3MXG6 1-394): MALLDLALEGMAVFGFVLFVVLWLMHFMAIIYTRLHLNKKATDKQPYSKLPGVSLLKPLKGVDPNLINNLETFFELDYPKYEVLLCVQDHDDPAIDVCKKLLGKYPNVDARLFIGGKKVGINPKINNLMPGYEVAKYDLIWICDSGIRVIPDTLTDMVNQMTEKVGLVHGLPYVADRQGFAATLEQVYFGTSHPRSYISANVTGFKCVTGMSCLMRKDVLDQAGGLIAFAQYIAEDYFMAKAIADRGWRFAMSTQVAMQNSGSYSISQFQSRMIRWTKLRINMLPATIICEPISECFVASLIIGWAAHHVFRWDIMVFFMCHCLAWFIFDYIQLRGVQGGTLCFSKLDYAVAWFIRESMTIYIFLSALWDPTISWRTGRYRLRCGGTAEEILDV
Format: biochemical, canine
Experimental: This assay was modified based on the study by Larsen et al. (J. Lipid Res. 2011, 53, 282). Madin-Darby canine kidney (MDCK) cell lysate was prepared using M-PER Mammalian Protein Extraction Reagent (Thermal Scientific) in the presence of a protease inhibitor cocktail (Roche). Protein concentration was determined using BCA assay kit (Pierce). Sixty micrograms of MDCK cell lysate was incubated with various concentrations of a compound described herein from 0.001 μM-10 μM, respectively, in 100 mM Tris buffer (pH 7.5) containing 10 mM MgCl2, 1 mM dithiothreitol, 1 mM EGTA, 2 mM NAD, 100 μM UDP-glucose, 10 μM C6-NBD-Ceramide (Matreya LLC, Pleasant Gap, Pa.), 35 μM dioleoylphosphatidylcholine and 5 μM sulfatide (Sigma) in a final reaction volume of 100 μL at 37° C. for 1 hour. 0.1% DMSO was used as mock treatment or control. The reaction was terminated by adding 100 μL acetonitrile solution and subjected to LC/MS analysis.
The quantitative analysis of NBD-Ceramide and glucosylceramide was performed on a Shimadzu ultra-fast liquid chromatography (Shimadzu, Japan) coupled with API 4000 triple quadrupole mass spectrometer (Applied Biosystems, Concord, Ontario, Canada). Sample separation was conducted on a Waters Xbridge™ BEH130 C18, 100 mm×4.6 mm i.d, 3.5 μm (Milford, Mass., USA). The mobile phase consisted of water and acetonitrile supplemented with 0.1% formic acid (v/v). The flow rate was 1.0 mL/min. The initial mobile phase was 20% acetonitrile and was ramped in a linear fashion to 50% acetonitrile in 0.4 min. From 0.4 to 1.5 min, the gradient was ramped to 98% acetonitrile, and then was held at […] until 8.0 min. Acetonitrile was reset to 20% in 1.5 min, and maintained until 10.0 min. The total run time was 10.0 min. The MS/MS detection was performed in ESI positive mode. The mass transition of NBD-Ceramide was m/z 576.36→558.40 under the collision energy of 15 V, and the mass transition of glucosylceramide was m/z 738.35→558.40 under 21V collision energy. The cell lysate was diluted with equal volume of acetonitrile. Aliquots of 50 μL diluted samples were added to 1.5 mL tubes, and 100 μL of acetonitrile containing internal standard (100 ng/mL tolbutamide) were added for protein precipitation. The mixture were vortexed and then centrifuged at 13000 rpm for 10 min. 70 μL of supernatant were mixed with 140 μL of H2O and the final solution were injected for LC/MS/MS analysis and IC50's and/or percent inhibitions calculated.

Row | SMILES | IC50
1 | O=C(N[C@H](CN1CCCC1)[C@H](O)c1ccc2c(c1)OCCO2)C(F)(F)c1cc2cc(F)ccc2s1 [Compound 28, N-((1R,2R)-1-(2,3-dihydrobenzo[b][1,4]dioxin-6-yl)-1-hydroxy-3-(pyrrolidin-1-yl)propan-2-yl)-2,2-difluoro-2-(5-fluorobenzo[b]thiophen-2-yl)acetamide] | < 50 nM
2 | O=C(N[C@H](CN1CCCC1)[C@H](O)c1ccc(OC2CC2)c(Cl)c1)C(F)(F)c1cc2cc(Cl)ccc2o1 [Compound 44, N-((1R,2R)-1-(3-chloro-4-cyclopropoxyphenyl)-1-hydroxy-3-(pyrrolidin-1-yl)propan-2-yl)-2-(5-chlorobenzofuran-2-yl)-2,2-difluoroacetamide] | < 50 nM

Same assay, conditions: Table 1; values marked *; MDCK cell lysate

Row | SMILES | % inhibition generated from Assay 1
3 | O=C(N[C@H](CN1CCCC1)[C@H](O)c1ccc2c(c1)OCCO2)C(F)(F)c1nc2cc(Cl)ccc2s1 [Compound 6, 2-(5-chlorobenzo[d]thiazol-2-yl)-N-((1R,2R)-1-(2,3-dihydrobenzo[b][1,4]dioxin-6-yl)-1-hydroxy-3-(pyrrolidin-1-yl)propan-2-yl)-2,2-difluoroacetamide] | B* (the compound had a % inhibition of greater than or equal to about 3% but less than about 50%)
4 | CC1(C)CN(C[C@@H](NC(=O)C(F)(F)c2cc3cc(Cl)ccc3o2)[C@H](O)c2ccc3c(c2)OCCO3)C1 [Compound 62, 2-(5-chlorobenzofuran-2-yl)-N-((1R,2R)-1-(2,3-dihydrobenzo[b][1,4]dioxin-6-yl)-3-(3,3-dimethylazetidin-1-yl)-1-hydroxypropan-2-yl)-2,2-difluoroacetamide] | B* (the compound had a % inhibition of greater than or equal to about 3% but less than about 50%)

Same assay, conditions: Table 2; data marked by *

Row | SMILES | % inhibition generated from Assay 1
5 | O=C(N[C@H](CN1CCCC1)[C@H](O)c1ccc(OC2CC2)c(Cl)c1)C(F)(F)c1cccc(Oc2ccc(F)cc2)c1 [Compound 206, N-((1R,2R)-1-(3-chloro-4-cyclopropoxyphenyl)-1-hydroxy-3-(pyrrolidin-1-yl)propan-2-yl)-2,2-difluoro-2-(3-(4-fluorophenoxy)phenyl)acetamide] | A* (the compound had a % inhibition of a percent inhibition of greater than or equal to about 50%)
6 | O=C(N[C@H](CN1CCC1)[C@H](O)c1ccc(OC2CC2)c(Cl)c1)/C(CCc1ccc2cc(F)ccc2c1)=N/O [Compound 137, (E)-N-((1R,2R)-3-(azetidin-1-yl)-1-(3-chloro-4-cyclopropoxyphenyl)-1-hydroxypropan-2-yl)-4-(6-fluoronaphthalen-2-yl)-2-(hydroxyimino)butanamide] | B* (the compound had a % inhibition of greater than or equal to about 3% but less than about 50%)
7 | CC1CN(C[C@@H](NC(=O)C(F)(F)CCc2ccc3cc(F)ccc3c2)[C@H](O)c2ccc3c(c2)OCCO3)C1 [Compound 96, N-((1R,2R)-1-(2,3-dihydrobenzo[b][1,4]dioxin-6-yl)-1-hydroxy-3-(3-methylazetidin-1-yl)propan-2-yl)-2,2-difluoro-4-(6-fluoronaphthalen-2-yl)butanamide] | A* (the compound had a % inhibition of a percent inhibition of greater than or equal to about 50%)
8 | O=C(N[C@H](CN1CCCC1)[C@H](O)c1ccc2c(c1)OCCO2)C(F)(F)c1ccc(-c2ccc(F)cc2)s1 [Compound 180, N-((1R,2R)-1-(2,3-dihydrobenzo[b][1,4]dioxin-6-yl)-1-hydroxy-3-(pyrrolidin-1-yl)propan-2-yl)-2,2-difluoro-2-(5-(4-fluorophenyl)thiophen-2-yl)acetamide] | A* (the compound had a % inhibition of a percent inhibition of greater than or equal to about 50%)

Same assay, conditions: Table 2; data without asterisk; read-out: IC50 (nM) generated from Assay 1

Row | SMILES | IC50
9 | O=C(N[C@H](CN1CCC1)[C@H](O)c1cc(F)c2c(c1)OCCO2)C(=O)c1ccc(-c2ccc3cnn(C4CC4)c3c2)cc1 [Example 283, N-((1R,2R)-3-(azetidin-1-yl)-1-(8-fluoro-2,3-dihydrobenzo[b][1,4]dioxin-6-yl)-1-hydroxypropan-2-yl)-2-(4-(1-cyclopropyl-1H-indazol-6-yl)phenyl)-2-oxoacetamide] | < 50 nM
10 | O=C(N[C@H](CN1CCCC1)[C@H](O)c1cc(F)c2c(c1)OCCO2)/C(CCc1ccc2ccccc2c1)=N/O [Compound 148, (E)-N-((1R,2R)-1-(8-fluoro-2,3-dihydrobenzo[b][1,4]dioxin-6-yl)-1-hydroxy-3-(pyrrolidin-1-yl)propan-2-yl)-2-(hydroxyimino)-4-(naphthalen-2-yl)butanamide] | < 50 nM
11 | O=C(N[C@H](CN1CCCC1)[C@H](O)c1ccc(OC2CC2)c(Cl)c1)C(F)(F)CCc1ccc2c(c1)CCCC2 [Compound 166, N-((1R,2R)-1-(3-chloro-4-cyclopropoxyphenyl)-1-hydroxy-3-(pyrrolidin-1-yl)propan-2-yl)-2,2-difluoro-4-(5,6,7,8-tetrahydronaphthalen-2-yl)butanamide] | < 50 nM
12 | O=C(N[C@H](CN1CCCC1)[C@H](O)c1cc(Cl)c2c(c1)OCCO2)C(=O)c1ccc(-c2ccc(F)cc2)cc1 [Compound 234, N-((1R,2R)-1-(8-chloro-2,3-dihydrobenzo[b][1,4]dioxin-6-yl)-1-hydroxy-3-(pyrrolidin-1-yl)propan-2-yl)-2-(4′-fluoro-[1,1′-biphenyl]-4-yl)-2-oxoacetamide] | < 50 nM
13 | O=C(N[C@H](CN1CCCC1)[C@H](O)c1ccc(OC2CC2)c(F)c1)C(F)(F)c1ccc(-c2ccc(F)cc2)cc1 [Compound 204, N-((1R,2R)-1-(4-cyclopropoxy-3-fluorophenyl)-1-hydroxy-3-(pyrrolidin-1-yl)propan-2-yl)-2,2-difluoro-2-(4′-fluoro-[1,1′-biphenyl]-4-yl)acetamide] | < 50 nM
14 | O=C(N[C@H](CN1CCCC1)[C@H](O)c1cc(F)c2c(c1)OCCO2)C(=O)c1cc2ccc(Cl)cc2s1 [Example 308, 2-(6-chlorobenzo[b]thiophen-2-yl)-N-((1R,2R)-1-(8-fluoro-2,3-dihydrobenzo[b][1,4]dioxin-6-yl)-1-hydroxy-3-(pyrrolidin-1-yl)propan-2-yl)-2-oxoacetamide] | < 50 nM
15 | O=C(N[C@H](CN1CCCC1)[C@H](O)c1ccc2c(c1)OCCO2)C(F)(F)CCc1ccc2cc(F)ccc2c1 [Compound 84, N-((1R,2R)-1-(2,3-dihydrobenzo[b][1,4]dioxin-6-yl)-1-hydroxy-3-(pyrrolidin-1-yl)propan-2-yl)-2,2-difluoro-4-(6-fluoronaphthalen-2-yl)butanamide] | < 50 nM
16 | CC(C)n1ncc2cc(-c3ccc(C(=O)C(=O)N[C@H](CN4CCCC4)[C@H](O)c4ccc(OC5CC5)c(Cl)c4)cc3)ccc21 [Example 258, N-((1R,2R)-1-(3-chloro-4-cyclopropoxyphenyl)-1-hydroxy-3-(pyrrolidin-1-yl)propan-2-yl)-2-(4-(1-isopropyl-1H-indazol-5-yl)phenyl)-2-oxoacetamide] | < 50 nM
17 | O=C(N[C@H](CN1CCCC1)[C@H](O)c1ccc(OC2CC2)c(Cl)c1)/C(=N/O)c1ccc(-c2ccc(F)cn2)cc1 [Compound 184, (E)-N-((1R,2R)-1-(3-chloro-4-cyclopropoxyphenyl)-1-hydroxy-3-(pyrrolidin-1-yl)propan-2-yl)-2-(4-(5-fluoropyridin-2-yl)phenyl)-2-(hydroxyimino)acetamide] | < 50 nM

Same assay, conditions: Table 3; MDCK cell lysate; read-out: IC50 (nM) generated from Assay 1

Row | SMILES | IC50
18 | O=C(N[C@H](CN1CCCC1)[C@H](O)c1ccc(OC2CC2)cc1)C(F)(F)c1ccc(-c2ccc(Cl)s2)cc1 [Example 393, 2-(4-(5-chlorothiophen-2-yl)phenyl)-N-((1R,2R)-1-(4-cyclopropoxyphenyl)-1-hydroxy-3-(pyrrolidin-1-yl)propan-2-yl)-2,2-difluoroacetamide] | < 50 nM
